Test results reported in article PMC6093650, “Antidepressive and anxiolytic effects of ostruthin, a TREK-1 channel activator” (PLoS ONE, 2018).

Columns and labels:
[1] = system: mice anxiety-like behavior; assay: open-field test; type: in vivo; details: n = 12
Description: Male ICR mice (n = 317 in total) aged 5 weeks and weighing 32 ± 2 g were purchased from Shimizu Laboratory Supplies (Kyoto, Japan). For the social defeat stress test, we used 28 C57BL/6J mice (5 weeks old, Shimizu Laboratory Supplies) and 30 ICR mice (7–8 weeks old, Charles River Labs Japan, Yokohama, Kanagawa, Japan). Mice were maintained for at least 1 week prior to experiments. Animals were kept in groups in plastic cages. They had free access to food and water, and were kept in a 12-h light/dark cycle (08:00–20:00). Experiments were carried out between 10:00 and 18:00 in a quiet and air-conditioned experimental room, in which mice were habituated for at least 30 min before each experiment. Animal experiments were performed in accordance with the guidelines of the Physiological Society of Japan and were approved by the Committees on Animal Experiments at Kansai Medical University and the Kurashiki University of Science and the Arts. Ostruthin was initially dissolved in DMSO at higher concentration (100 mM) and then diluted in phosphate-buffered saline (PBS). The diluted solution was mixed vigorously for more than 10 min before the experiments, and an equal volume of DMSO was added to PBS as a control. PBS and ostruthin were administered intraperitoneally 30 min before mice behavioral tests (0.01 ml/g body weight). Each animal was used only once, except for the wheel running test, which was carried out immediately after elevated plus maze.
The open-field test was performed in accordance with a previous report with minor modifications. The open-field consisted of a square (90 × 90 cm), in which the floor was divided into 16 equal squares. After a mouse was placed in a corner of the open field facing the wall, the number of the entries into the central squares, and whole line crossings were counted for 5 min. After removal of animal, the apparatus was cleaned and wiped.

[2] = target: T1, HERG-3 (Homo sapiens, UniProt Q9NS40); assay: whole-cell patch-clamp of HERG-3 currents in 293T cells; type: cell-based; details: 100 μM (data not shown)
T1 construct: expressed in transfected cells; host or cells: 293T (transient, calcium-phosphate transfection)
T1 sequence (Q9NS40 1-1196): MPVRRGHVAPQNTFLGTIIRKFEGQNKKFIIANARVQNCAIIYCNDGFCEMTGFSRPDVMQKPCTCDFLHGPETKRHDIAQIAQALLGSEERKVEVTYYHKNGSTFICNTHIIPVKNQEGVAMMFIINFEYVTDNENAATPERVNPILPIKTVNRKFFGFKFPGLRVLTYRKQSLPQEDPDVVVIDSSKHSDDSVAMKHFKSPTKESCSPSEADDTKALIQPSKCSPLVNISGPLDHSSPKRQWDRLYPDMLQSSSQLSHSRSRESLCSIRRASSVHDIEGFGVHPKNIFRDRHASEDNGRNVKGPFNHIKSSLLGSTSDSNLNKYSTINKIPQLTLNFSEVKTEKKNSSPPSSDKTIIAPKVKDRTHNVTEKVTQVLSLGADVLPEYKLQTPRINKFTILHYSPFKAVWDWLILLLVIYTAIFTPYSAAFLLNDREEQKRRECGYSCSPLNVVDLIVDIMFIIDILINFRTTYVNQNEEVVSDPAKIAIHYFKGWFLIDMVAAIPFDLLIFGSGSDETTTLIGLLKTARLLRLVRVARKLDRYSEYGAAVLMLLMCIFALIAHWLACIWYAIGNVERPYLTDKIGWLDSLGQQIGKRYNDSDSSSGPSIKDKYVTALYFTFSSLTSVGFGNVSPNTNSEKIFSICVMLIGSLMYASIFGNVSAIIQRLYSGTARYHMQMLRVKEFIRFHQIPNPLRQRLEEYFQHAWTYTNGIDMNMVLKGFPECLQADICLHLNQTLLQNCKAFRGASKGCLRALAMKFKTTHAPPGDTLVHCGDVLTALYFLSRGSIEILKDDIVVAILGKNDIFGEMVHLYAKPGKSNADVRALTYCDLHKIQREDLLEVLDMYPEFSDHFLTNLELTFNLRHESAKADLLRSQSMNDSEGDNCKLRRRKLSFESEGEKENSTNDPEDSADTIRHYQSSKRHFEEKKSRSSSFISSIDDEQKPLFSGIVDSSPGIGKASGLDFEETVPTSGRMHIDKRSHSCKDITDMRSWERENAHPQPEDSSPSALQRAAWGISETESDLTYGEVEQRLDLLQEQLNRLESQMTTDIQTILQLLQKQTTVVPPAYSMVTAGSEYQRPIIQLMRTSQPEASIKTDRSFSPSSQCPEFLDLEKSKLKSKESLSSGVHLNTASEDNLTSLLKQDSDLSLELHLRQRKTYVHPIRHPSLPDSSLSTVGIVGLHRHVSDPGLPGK
Description: For recordings of K^+ channel currents, we prepared stable cell lines for TREK-1, TWIK-related acid-sensitive K^+ channel (TASK-1), strongly inwardly rectifying K^+ channel (Kir2.1), and human ether-a-go-go-related gene (HERG-1) channels and transiently expressed other channels in 293T cells using a calcium-phosphate transfection method. For the establishment of the stable lines, we used lentiviral vectors, and the preparation methods for the lentiviral vectors were described in our previous report. TR-1 cells, which stably expressed TREK-1 channel and were grown on a small cover glass (3 × 18 mm), were placed in a recording chamber with an internal volume of 200 μl. Whole-cell currents were recorded in Tyrode solution using an Axopatch 200B amplifier (Axon Instruments, Foster City, CA) at 25°C. Tyrode solution contained (in mM): NaCl 140, KCl 5.4, NaH2PO4 0.33, CaCl2 2, MgCl2 1, HEPES 5, and glucose 5.5 (pH 7.4 adjusted with NaOH). […] Perfusion (100 μl/min) was continued to maintain the water level throughout recordings. pH and osmotic pressure of solutions were measured with a pH meter (Horiba, Kyoto, Japan) and a freezing point osmometer (Knauer, Berlin, Germany), respectively. […]

CC(C)=CCC/C(C)=C/Cc1cc2ccc(=O)oc2cc1O [ostruthin]
number of entries to the central area ([1]; 20 mg/kg i.p. 30 min before test, vs 5 mg/kg): significantly decreased | total line crossings ([1]; 20 mg/kg i.p., vs 5 mg/kg): decrease | number of entries to the central area ([1]; 2 and 5 mg/kg i.p. 30 min before test, vs 0 mg/kg, 5 min): significantly increased | total line crossings ([1]; 2 and 5 mg/kg i.p. 30 min before test, vs 0 mg/kg): increased | effect on HERG-3 channels [2]: no effect
